The source made the active and inactive calls. How the calls were made is not given here.
System: CCRIS mutagenicity, Ames/micronucleus/aberration tests
Experiment: CCRIS mutagenicity studies
[1] = Test System: AMES SALMONELLA TYPHIMURIUM, Strain/Indicator: TA98, Metabolic Activation: NONE, Method: PREINCUBATION
[2] = Test System: AMES SALMONELLA TYPHIMURIUM, Strain/Indicator: TA100, Metabolic Activation: NONE, Method: PREINCUBATION
[3] = Test System: AMES SALMONELLA TYPHIMURIUM, Strain/Indicator: TA1535, Metabolic Activation: NONE, Method: PREINCUBATION
[4] = Test System: AMES SALMONELLA TYPHIMURIUM, Strain/Indicator: TA1537, Metabolic Activation: NONE, Method: PREINCUBATION

Compound: O=P(O)(O)OP(=O)(O)OP(=O)(O)O
- mutagenic call [1]: inactive; negative
- mutagenic call (Test System: AMES SALMONELLA TYPHIMURIUM, Strain/Indicator: TA98, Metabolic Activation: RAT, LIVER, S-9, KC 500, Method: PREINCUBATION): inactive; negative
- mutagenic call [2]: inactive; negative
- mutagenic call (Test System: AMES SALMONELLA TYPHIMURIUM, Strain/Indicator: TA100, Metabolic Activation: RAT, LIVER, S-9, KC 500, Method: PREINCUBATION): inactive; negative
- mutagenic call [3]: inactive; negative
- mutagenic call (Test System: AMES SALMONELLA TYPHIMURIUM, Strain/Indicator: TA1535, Metabolic Activation: RAT, LIVER, S-9, KC 500, Method: PREINCUBATION): inactive; negative
- mutagenic call [4]: inactive; negative
- mutagenic call (Test System: AMES SALMONELLA TYPHIMURIUM, Strain/Indicator: TA1537, Metabolic Activation: RAT, LIVER, S-9, KC 500, Method: PREINCUBATION): inactive; negative
- mutagenic call (Test System: AMES SALMONELLA TYPHIMURIUM, Strain/Indicator: TA1538, Metabolic Activation: NONE, Method: PREINCUBATION): inactive; negative
- mutagenic call (Test System: AMES SALMONELLA TYPHIMURIUM, Strain/Indicator: TA1538, Metabolic Activation: RAT, LIVER, S-9, KC 500, Method: PREINCUBATION): inactive; negative
- mutagenic call (Test System: E. COLI, Strain/Indicator: WP2 UVRA, Metabolic Activation: NONE, Method: PREINCUBATION): inactive; negative
- mutagenic call (Test System: E. COLI, Strain/Indicator: WP2 UVRA, Metabolic Activation: RAT, LIVER, S-9, KC 500, Method: PREINCUBATION): inactive; negative

Compound: CN(C)[C@@H]1C(=O)C(C(N)=O)=C(O)[C@@]2(O)C(=O)C3=C(O)c4c(O)cccc4[C@@](C)(O)[C@H]3[C@H](O)[C@@H]12
- mutagenic call (End Point: AMES SALMONELLA TYPHIMURIUM, Test System: TA98, Metabolic Activation: NONE, Method: STANDARD PLATE): inactive; negative
- mutagenic call (End Point: AMES SALMONELLA TYPHIMURIUM, Test System: TA100, Metabolic Activation: NONE, Method: STANDARD PLATE): inactive; negative
- mutagenic call (End Point: IN VITRO CHROMOSOMAL ABERRATIONS, Test System: CHO CELLS, Metabolic Activation: NONE): inactive; negative
- mutagenic call (End Point: IN VITRO CHROMOSOMAL ABERRATIONS, Test System: CHO CELLS, Metabolic Activation: RAT, LIVER, S-9, AROCLOR 1254): inactive; negative
- mutagenic call (Test System: AMES SALMONELLA TYPHIMURIUM, Strain/Indicator: TA98, Metabolic Activation: HAMSTER, LIVER, S-9, AROCLOR 1254, Method: PREINCUBATION): inactive; negative
- mutagenic call [1]: inactive; negative
- mutagenic call (Test System: AMES SALMONELLA TYPHIMURIUM, Strain/Indicator: TA98, Metabolic Activation: RAT, LIVER, S-9, AROCLOR 1254, Method: PREINCUBATION): inactive; negative
- mutagenic call (Test System: AMES SALMONELLA TYPHIMURIUM, Strain/Indicator: TA100, Metabolic Activation: HAMSTER, LIVER, S-9, AROCLOR 1254, Method: PREINCUBATION): inactive; negative
- mutagenic call [2]: inactive; negative
- mutagenic call (Test System: AMES SALMONELLA TYPHIMURIUM, Strain/Indicator: TA100, Metabolic Activation: RAT, LIVER, S-9, AROCLOR 1254, Method: PREINCUBATION): inactive; negative
- mutagenic call (Test System: AMES SALMONELLA TYPHIMURIUM, Strain/Indicator: TA1535, Metabolic Activation: HAMSTER, LIVER, S-9, AROCLOR 1254, Method: PREINCUBATION): inactive; negative
- mutagenic call [3]: inactive; negative
- mutagenic call (Test System: AMES SALMONELLA TYPHIMURIUM, Strain/Indicator: TA1535, Metabolic Activation: RAT, LIVER, S-9, AROCLOR 1254, Method: PREINCUBATION): inactive; negative
- mutagenic call (Test System: AMES SALMONELLA TYPHIMURIUM, Strain/Indicator: TA1537, Metabolic Activation: HAMSTER, LIVER, S-9, AROCLOR 1254, Method: PREINCUBATION): inactive; negative
- mutagenic call [4]: inactive; negative
- mutagenic call (Test System: AMES SALMONELLA TYPHIMURIUM, Strain/Indicator: TA1537, Metabolic Activation: RAT, LIVER, S-9, AROCLOR 1254, Method: PREINCUBATION): inactive; negative
- mutagenic call (Test System: MOUSE LYMPHOMA, Strain/Indicator: L5178Y (TK+/TK-), Metabolic Activation: RAT, LIVER, S-9, AROCLOR 1254, Method: SUSPENSION/PLATE): active; positive

Compound: c1ccc2c(COCC3CO3)cccc2c1 (centres undefined)
- mutagenic call (Test System: AMES SALMONELLA TYPHIMURIUM, Strain/Indicator: TA100, Metabolic Activation: NONE, Method: STANDARD PLATE): active; positive
- mutagenic call (Test System: AMES SALMONELLA TYPHIMURIUM, Strain/Indicator: TA1535, Metabolic Activation: NONE, Method: STANDARD PLATE): active; positive

Compound: ClC1C(Br)C(Br)C(Br)C(Br)C1Br (centres undefined)
- mutagenic call (Test System: AMES SALMONELLA TYPHIMURIUM, Strain/Indicator: TA97, Metabolic Activation: HAMSTER, LIVER, S-9, AROCLOR 1254 (5, 10 OR 30%), Method: PREINCUBATION): inactive; negative
- mutagenic call (Test System: AMES SALMONELLA TYPHIMURIUM, Strain/Indicator: TA97, Metabolic Activation: NONE, Method: PREINCUBATION): inactive; negative
- mutagenic call (Test System: AMES SALMONELLA TYPHIMURIUM, Strain/Indicator: TA97, Metabolic Activation: RAT, LIVER, S-9, AROCLOR 1254 (10 OR 30%), Method: PREINCUBATION): inactive; negative
- mutagenic call (Test System: AMES SALMONELLA TYPHIMURIUM, Strain/Indicator: TA98, Metabolic Activation: HAMSTER, LIVER, S-9, AROCLOR 1254 (10 OR 30%), Method: PREINCUBATION): inactive; negative
- mutagenic call [1]: inactive; negative
- mutagenic call (Test System: AMES SALMONELLA TYPHIMURIUM, Strain/Indicator: TA98, Metabolic Activation: RAT, LIVER, S-9, AROCLOR 1254 (10 OR 30%), Method: PREINCUBATION): inactive; negative
- mutagenic call (Test System: AMES SALMONELLA TYPHIMURIUM, Strain/Indicator: TA100, Metabolic Activation: HAMSTER, LIVER, S-9, AROCLOR 1254 (10%), Method: PREINCUBATION): inactive; negative
- mutagenic call (Test System: AMES SALMONELLA TYPHIMURIUM, Strain/Indicator: TA100, Metabolic Activation: HAMSTER, LIVER, S-9, AROCLOR 1254 (30%), Method: PREINCUBATION): inactive; negative
- mutagenic call [2]: inactive; negative
- mutagenic call (Test System: AMES SALMONELLA TYPHIMURIUM, Strain/Indicator: TA100, Metabolic Activation: RAT, LIVER, S-9, AROCLOR 1254 (10 OR 30%), Method: PREINCUBATION): inactive; negative
- mutagenic call (Test System: AMES SALMONELLA TYPHIMURIUM, Strain/Indicator: TA1535, Metabolic Activation: HAMSTER, LIVER, S-9, AROCLOR 1254 (5 OR 10%), Method: PREINCUBATION): inactive; negative
- mutagenic call (Test System: AMES SALMONELLA TYPHIMURIUM, Strain/Indicator: TA1535, Metabolic Activation: HAMSTER, LIVER, S-9, AROCLOR 1254 (30%), Method: PREINCUBATION): inactive; negative
- mutagenic call [3]: inactive; negative
- mutagenic call (Test System: AMES SALMONELLA TYPHIMURIUM, Strain/Indicator: TA1535, Metabolic Activation: RAT, LIVER, S-9, AROCLOR 1254 (10 OR 30%), Method: PREINCUBATION): inactive; negative

Compound: CCCCCCCCCCOC[N+](C)(C)CCCCCCCC
- mutagenic call (Test System: BACILLUS SUBTILIS, Strain/Indicator: H17/REC, Metabolic Activation: NONE, Method: STANDARD PLATE): inactive; negative
- mutagenic call (Test System: BACILLUS SUBTILIS, Strain/Indicator: M45, Metabolic Activation: NONE, Method: STANDARD PLATE): inactive; negative

Compound: O=[N+]([O-])c1ccc2ccc3cc4c(c5ccc1c2c35)C1OC1[C@@H](O)[C@@H]4O (some centres undefined)
- mutagenic call (Test System: CHINESE HAMSTER OVARY, Strain/Indicator: CHO-K1-BH4 (HGPRT)/6-THIOGUANINE, Metabolic Activation: NONE): active; positive

Compound: [Cl][La]([Cl])[Cl]
- mutagenic call (Test System: E. COLI, Strain/Indicator: WP2 UVRA, Metabolic Activation: NONE, Method: SPOT TEST): inactive; negative

Source: PubChem BioAssay AID1259407 (Chemical Carcinogenesis Research Information System (CCRIS), 2018)
